Source: US9469611B2, “Use of dihydroimidazolones for the treatment of dogs” (BOEHRINGER INGELHEIM VETMEDICA GMBH, priority 2002, dated 2016)
Several values for one entry are separate records, joined by “and”; a condition that tells them apart may be missing. Equal entries are not always repeated. Where two headings read alike, the source gives them in different places. Marks after values point to notes of the source that are not given here.

Legend:
[1] = side effects: owner questionnaire and follow up examinations with blood work
[2] = tested on: calcium channel; details: cited from earlier work
[3] = monkeys; cited from earlier work
[4] = self administration paradigm; cited from earlier work
[5] = plasma concentration of AWD 131-138 (HPLC/mass spectrometry); type: in vivo, dog; details: for concentration at 12 h: 12 hours after application
Experimental: A pharmacokinetic study was performed at the beginning of treatment in 2 dogs with AWD 131-138 monotherapy and in 4 dogs with a combination therapy of AWD 131-138 and phenobarbital or primidone. All 6 dogs received 5 mg/kg bodyweight AWD 131-138. Blood was taken 3 times every 2 hours. […] The same method was used as a compliance control during the follow up examinations. Blood was taken two and twelve hours after oral administration of AWD 131-138.
In six dogs entering the pilot study with AWD 131-138 a pharmacokinetic study was performed. AWD 131-138 was measured in plasma samples two, four and six hours after application. The initial dosage of AWD 131-138 was 5 mg/kg bodyweight p.o. in all cases.

[6] = tested on: benzodiazepine receptor; details: co administration of flumazenil; cited from earlier work
[7] = tested on: chemically induced seizure threshold; details: dogs, cited from earlier work
[8] = tested on: benzodiazepine binding site of the GABAA receptor; details: broad receptor screen; cited from earlier work
[9] = tested on: dogs with newly diagnosed idiopathic epilepsy; experiment: monotherapy in dogs with newly diagnosed idiopathic epilepsy (AWD 131-138 pilot study; retrospective phenobarbital, primidone)
[10] = tested on: dogs with chronic idiopathic epilepsy; experiment: add-on therapy in dogs with chronic idiopathic epilepsy not responding to phenobarbital or primidone; type: in vivo, dog
[11] = tested on: cloned human GABA receptor complexes; details: cited from earlier work
[12] = 12 newly diagnosed dogs, monotherapy
[13] = add-on, abnormalities already at the beginning of the study
[14] = grand mal seizures, baseline before monotherapy
[15] = grand mal seizures, monotherapy
[16] = median group value, baseline before monotherapy
[17] = median group value, monotherapy, asterisk = P<0.05 vs before
[18] = grand mal seizures, add-on to phenobarbital or primidone
[19] = grand mal seizures, on phenobarbital or primidone before add-on
[20] = median, on phenobarbital/primidone before add-on

Compound: O=C1N=C(N2CCOCC2)CN1c1ccc(Cl)cc1 [AWD 131-138, 1-(4-chlorophenyl)-4-(4-morpholinyl)-2,5-dihydro-1H-imidazol-2-one]
- sedation [1, 12]: no sedation occurred
- tolerability [1, 12]: exceptionally well tolerated
- hematology and blood chemistry ([1]; 12 newly diagnosed dogs, monotherapy, follow up): No abnormalities were found
- polyphagia, cases ([1]; 12 newly diagnosed dogs, monotherapy, in 4 dogs only at the beginning): 7 (58%)
- tolerability ([1]; 17 dogs with chronic epilepsy, add-on): very well tolerated
- hematology (red, white and differential cell count) ([1]; 17 dogs with chronic epilepsy, add-on, follow up): No abnormalities were found
- polyphagia, cases ([1]; 17 dogs with chronic epilepsy, add-on, in 7 dogs only at the beginning): 10 (59%)
- elevation of liver enzymes (ALT, GLDH and AP) ([1]; AWD 131-138 monotherapy): not observed
- dogs with ataxia in the hind limbs and apathy 2 4 hours after application ([1]; add-on, 40 mg/kg per day, combined phenobarbital with serum concentrations 56.6 58.9 μg/mL): Two
- dogs with elevation of ALT [1, 13]: 1
- dogs with elevation of AP [1, 13]: 6
- dogs with elevation of GLDH [1, 13]: 3
- calcium channel blocking effect [2]: weak calcium channel blocking effect
- identified as benzodiazepine like [3]: did not identify AWD 131-138 as benzodiazepine like
- substitution for cocaine [4]: did not substitute for cocaine
- AWD 131-138 plasma concentration ([5]; 2 hours after 5 mg/kg p.o., AWD 131-138 monotherapy, individual dogs): 720.0 ng/mL and 2579.2 ng/mL
- AWD 131-138 plasma concentration ([5]; 2 hours after 5 mg/kg p.o., phenobarbital combination therapy, individual dogs): 23.27 ng/mL and 1019.5 ng/mL
- AWD 131-138 plasma concentration ([5]; 2 hours after 5 mg/kg p.o., primidone combination therapy, individual dogs): 2392.3 ng/mL
- AWD 131-138 plasma concentration ([5]; 4 hours after 5 mg/kg p.o., AWD 131-138 monotherapy, individual dogs): 702.7 ng/mL and 1461.0 ng/mL
- AWD 131-138 plasma concentration ([5]; 4 hours after 5 mg/kg p.o., phenobarbital combination therapy, individual dogs): Bld
- AWD 131-138 plasma concentration ([5]; 4 hours after 5 mg/kg p.o., primidone combination therapy, individual dogs): 1021.5 ng/mL and 2438.7 ng/mL
- AWD 131-138 plasma concentration ([5]; 6 hours after 5 mg/kg p.o., AWD 131-138 monotherapy, individual dogs): 229.5 ng/mL and 709.0 ng/mL
- AWD 131-138 plasma concentration ([5]; 6 hours after 5 mg/kg p.o., phenobarbital combination therapy, individual dogs): bld (bld (below limit of detection): <2 ng/mL)
- AWD 131-138 plasma concentration ([5]; 6 hours after 5 mg/kg p.o., primidone combination therapy, individual dogs): 448.1 ng/mL and 1289.0 ng/mL
- concentration at 2 h ([5]; dog, plasma, oral, 5 mg/kg bodyweight, 2 hours after 5 mg/kg p.o., primidone combination therapy, individual dogs, read-out: AWD 131-138 plasma concentration): 1520 ng/mL
- concentration at 4 h ([5]; dog, plasma, oral, 5 mg/kg bodyweight, 4 hours after 5 mg/kg p.o., phenobarbital combination therapy, individual dogs): 174 ng/mL
- concentration at 6 h ([5]; dog, plasma, oral, 5 mg/kg bodyweight, 6 hours after 5 mg/kg p.o., phenobarbital combination therapy, individual dogs): 19.5 ng/mL
- concentration at 2 h ([5]; dog, plasma, oral, 30 mg/kg, 2 hours after application, 30 mg/kg, non responder dog that died in status epilepticus, read-out: AWD 131-138 plasma concentration): 4000 ng/mL
- concentration at 2 h ([5]; dog, plasma, oral, 40 mg/kg/day, 2 hours after application, 40 mg/kg per day, two dogs with ataxia on combined phenobarbital treatment, read-out: AWD 131-138 plasma concentration, range): 5560 to 10900 ng/mL
- concentration at 2 h ([5]; dog, plasma, oral, chronic epilepsy add on, 2 hours after application, 10-15 mg/kg twice a day, seventeen dogs, read-out: AWD 131-138 plasma concentration, range): 280 to 10600 ng/mL
- concentration at 2 h ([5]; dog, plasma, oral, chronic epilepsy add on, 2 hours after application, read-out: AWD 131-138 plasma concentration, mean): 3900 ng/mL
- concentration at 2 h ([5]; dog, plasma, oral, chronic epilepsy add on, 2 hours after application, read-out: AWD 131-138 plasma concentration, median): 2990 ng/mL
- concentration at 12 h ([5]; dog, plasma, oral, chronic epilepsy add on, read-out: AWD 131-138 plasma concentration, mean): 644 ng/mL
- concentration at 12 h ([5]; dog, plasma, oral, chronic epilepsy add on, read-out: AWD 131-138 plasma concentration, median): 179 ng/mL
- concentration at 12 h ([5]; dog, plasma, oral, chronic epilepsy add on, read-out: AWD 131-138 plasma concentration, range): 7.57 to 5870 ng/mL
- concentration at 2 h ([5]; dog, plasma, oral, newly diagnosed dogs, three weeks of treatment, 2 hours after oral application, 10-20 mg/kg twice a day, eleven cases, read-out: AWD 131-138 plasma concentration, range): 53.3 to 8620 ng/mL
- concentration at 12 h ([5]; dog, plasma, oral, newly diagnosed dogs, three weeks, twelve dogs, read-out: AWD 131-138 plasma concentration, range): 5.4 to 1140 ng/mL
- concentration at 12 h ([5]; dog, plasma, oral, newly diagnosed dogs, three weeks, read-out: AWD 131-138 plasma concentration, mean): 378 ng/mL
- concentration at 12 h ([5]; dog, plasma, oral, newly diagnosed dogs, three weeks, read-out: AWD 131-138 plasma concentration, median): 218 ng/mL
- concentration at 2 h ([5]; dog, plasma, po, newly diagnosed dogs, three weeks, 2 hours after oral application, read-out: AWD 131-138 plasma concentration, mean): 3360 ng/mL
- concentration at 2 h ([5]; dog, plasma, po, newly diagnosed dogs, three weeks, 2 hours after oral application, read-out: AWD 131-138 plasma concentration, median): 2580 ng/mL
- antagonism of anticonvulsive activity by flumazenil [6]: partly antagonised
- antagonism of anxiolytic activity by flumazenil [6]: fully antagonised
- increase of seizure threshold (PTZ convulsive threshold) ([7]; 20 mg/kg p.o.): 39%
- increase of seizure threshold (PTZ convulsive threshold) ([7]; 40 mg/kg p.o.): 118%
- affinity for the benzodiazepine binding site [8]: very low affinity
- comparison of antiepileptic efficacy between monotherapy treatment groups ([9]; ANOVA): did not indicate any significant differences
- duration of the ictus before treatment, median [9, 14]: 3.0 min
- duration of the ictus before treatment, time range [9, 14]: 0.5 to 10 min
- duration of the ictus during treatment, median [9, 15]: 2.5 min
- duration of the ictus during treatment, time range [9, 15]: 0.5 to 10 min
- % reduction of seizures in responders ([9]; mean ± SEM, monotherapy): 49.8 ± 11.3%
- Seizure frequency before treatment, all dogs [9, 16]: 1.6 seizures/month
- Seizure frequency before treatment, without nonresponders [9, 16]: 1.7 seizures/month
- Seizure frequency during treatment, all dogs [9, 17]: 0.71 seizures/month
- Seizure frequency during treatment, without nonresponders [9, 17]: 0.55* seizures/month
- dogs that died or were euthanized in status epilepticus ([9]; monotherapy): One
- dogs with focal seizures instead of grand mal seizures during treatment ([9]; monotherapy): two
- dogs with reduced seizure number per cluster ([9]; monotherapy): 4
- number of dogs with decreased duration of the ictus ([9]; monotherapy): five
- number of dogs with shortened postictal phase ([9]; monotherapy): four
- owners reporting subjectively a decrease of seizure severity ([9]; monotherapy): nine of 12
- reduction of seizure number per cluster, mean ([9]; monotherapy): 45.3%
- dogs in which clusters no longer developed ([9]; monotherapy, dogs with clusters before treatment): One
- decrease of the duration of the ictus, mean ([9]; monotherapy, in the dogs with a decrease): 38%
- comparison of antiepileptic efficacy between the two add on treatment schedules ([10]; Fisher's exact test): did not indicate any significant difference
- decrease of number of seizures per cluster, mean ([10]; add-on): 39.5%
- dogs in which clusters did not occur anymore ([10]; add-on): three
- dogs in which focal seizures replaced grand mal seizures partially ([10]; add-on): nine
- dogs with a seizure reduction under 50% ([10]; add-on): 4
- dogs with decreased number of seizures per cluster ([10]; add-on): 4
- dogs with worsening of seizure severity reported by owner ([10]; add-on): One
- number of dogs with decreased duration of the ictus ([10]; add-on): 3
- number of dogs with shortened postictal phase ([10]; add-on): ten
- owners reporting subjectively a decrease of seizure severity ([10]; add-on): eight of seventeen
- postictal phase during treatment, mean ([10]; add-on): 5.5 h
- dogs that died or were euthanized in status epilepticus ([10]; add-on to phenobarbital or primidone): Nine
- shortening of the postictal phase, mean ([10]; add-on, in the dogs with shortening): 54%
- duration of the ictus during treatment, median [10, 18]: 2.0 min
- duration of the ictus during treatment, time range [10, 18]: 0.5 to 5 min
- duration of the ictus before treatment, median [10, 19]: 2.0 min
- duration of the ictus before treatment, time range [10, 19]: 0.5 to 10 min
- % reduction of seizures in responders ([10]; mean ± SEM, add-on to phenobarbital/primidone): 47.2 ± 8.8%
- Seizure frequency during treatment, all dogs ([10]; median, add-on to phenobarbital/primidone): 2.0 seizures/month
- Seizure frequency during treatment, without nonresponders ([10]; median, add-on to phenobarbital/primidone, asterisk = P<0.05): 1.1* seizures/month
- Seizure frequency before treatment, all dogs [10, 20]: 1.9 seizures/month
- Seizure frequency before treatment, without nonresponders [10, 20]: 2.4 seizures/month
- mode of action at the benzodiazepine receptor ([11]; different cloned human GABA receptor complexes): low affinity partial agonist at the benzodiazepine receptor without subtype selectivity
- maximal stimulation ([11]; of the effect of diazepam): 20%
